According to the NIST ThermoML archive (doi:10.1021/je900978x):
± gives the expanded uncertainty stated by the source.

Details: Fluid (supercritical or subcritical phases), Buoyancy - hydrostatic balance with magnetic suspension - one sinker

CC [ethane]
Details	mass density [kg/m3]
298.15 K, 2000 kPa	29.226 ± 0.03
298.15 K, 5987 kPa	352.999 ± 0.36
298.15 K, 7909 kPa	371.593 ± 0.23
298.15 K, 10071 kPa	385.867 ± 0.24
298.15 K, 14959 kPa	407.911 ± 0.25
298.15 K, 20004 kPa	423.934 ± 0.26
298.15 K, 24927 kPa	436.235 ± 0.27
298.15 K, 29893 kPa	446.599 ± 0.27
298.15 K, 35020 kPa	455.82 ± 0.28
298.15 K, 39905 kPa	463.582 ± 0.28
298.15 K, 49977 kPa	477.362 ± 0.29
298.15 K, 75091 kPa	503.592 ± 0.31
298.15 K, 99827 kPa	523.125 ± 0.32
298.15 K, 119760 kPa	536.225 ± 0.33
298.15 K, 149807 kPa	552.995 ± 0.34
350 K, 1999 kPa	22.819 ± 0.023
350 K, 29974 kPa	384.889 ± 0.23
350 K, 49928 kPa	430.315 ± 0.26
350 K, 74959 kPa	464.696 ± 0.28
350 K, 100019 kPa	489.111 ± 0.3
350 K, 124863 kPa	508.192 ± 0.31
350 K, 149906 kPa	524.195 ± 0.32
350 K, 172157 kPa	536.528 ± 0.33
400 K, 805 kPa	7.452 ± 0.008
400 K, 7325 kPa	84.481 ± 0.052
400 K, 27286 kPa	311.921 ± 0.19
400 K, 48575 kPa	383.533 ± 0.23
400 K, 69346 kPa	421.214 ± 0.26
400 K, 92289 kPa	450.02 ± 0.28
400 K, 117459 kPa	473.901 ± 0.29
400 K, 139686 kPa	491.026 ± 0.3
400 K, 154657 kPa	501.119 ± 0.31
400 K, 166558 kPa	508.474 ± 0.31
400 K, 181565 kPa	517.111 ± 0.32
400 K, 196062 kPa	524.823 ± 0.32
450 K, 1998 kPa	16.685 ± 0.017
450 K, 5021 kPa	44.467 ± 0.045
450 K, 10001 kPa	96.599 ± 0.06
450 K, 20005 kPa	202.282 ± 0.12
450 K, 30018 kPa	272.417 ± 0.17
450 K, 49974 kPa	346.238 ± 0.21
450 K, 69967 kPa	388.105 ± 0.24
450 K, 79928 kPa	403.693 ± 0.25
450 K, 99962 kPa	429.113 ± 0.26
450 K, 119860 kPa	449.29 ± 0.27
450 K, 139478 kPa	465.963 ± 0.28
